Test results: patent publication US12115166B2, “Corticotropin releasing factor receptor antagonists” (Spruce Biosciences, Inc., priority 2017, dated 2024)

Legend:
CRF1 receptor = target: T1, CRF1 receptor (Homo sapiens, UniProt P34998); test: Phase 2 study in adults with classic CAH: hormone response (ACTH, 17-OHP, androstenedione); format: in vivo; conditions: CAH patients
T1 construct: from tissue; host or cells: living human patients
T1 sequence (P34998 24-415): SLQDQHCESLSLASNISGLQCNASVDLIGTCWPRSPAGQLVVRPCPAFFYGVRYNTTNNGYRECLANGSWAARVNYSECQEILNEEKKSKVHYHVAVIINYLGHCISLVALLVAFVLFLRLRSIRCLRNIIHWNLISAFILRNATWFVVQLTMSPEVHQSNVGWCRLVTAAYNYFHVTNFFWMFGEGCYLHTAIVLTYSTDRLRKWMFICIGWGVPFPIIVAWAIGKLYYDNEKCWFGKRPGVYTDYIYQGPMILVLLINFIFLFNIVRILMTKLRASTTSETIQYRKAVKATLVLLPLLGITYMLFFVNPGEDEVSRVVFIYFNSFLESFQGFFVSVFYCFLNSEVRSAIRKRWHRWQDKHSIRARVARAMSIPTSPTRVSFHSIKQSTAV
Text: Cohort A of the Phase 2 Study includes a 6-week, multiple-dose, dose escalation study of Compound 1 for the treatment of adults with classic CAH. After screening, eligible patients will be enrolled into a 6-week treatment period followed by a 4-week washout/safety follow-up period.
This cohort will be conducted in approximately 9 patients, who will receive Compound 1 daily for up to 6 weeks. Compound 1 will be administered as an oral daily dose. Patients will undergo titration of Compound 1 through three escalating dosage strengths at 2-week intervals. […]
Patients in Cohort B will receive study drug at 200 mg BID, with a dose in the morning and a dose in the evening, either with a meal or consumption of a standardized snack. For Cohorts C and D, the dose level and the frequency and timing of dosing will be determined based on interim data from the previous cohorts. […]
Outcome Measures Primary Outcome Measure: • 1. […] To assess the efficacy of Compound 1 in subjects with classic CAH as measured by percent and absolute change in 17-OHP compared to baseline. […] To explore the dose(s) of Compound 1 that cause pharmacodynamics changes in plasma concentrations of ACTH, androstenedione, and testosterone, as measured by the absolute and percent change from baseline by dose. • 4. […]

[1] = Study 1: single-escalating oral dose pharmacokinetics in healthy adult subjects (fed, and 150 mg fasted); format: in vivo, human; conditions: 50 to 800 mg, fed state; formal test inconclusive
Procedure: Study 1 was the first-in-human study that investigated the safety, tolerability, and PK of single-escalating doses of Compound 1, given orally, to healthy adult subjects. […] The data from this study were used for the selection of doses for Study 2.
In Study 1, Compound 1 was administered to healthy adult subjects as a single PO dose of 2, 10, 50, 150, 400, or 800 mg in the fed state and 150 mg in the fasted state. Absorption occurred moderately late, achieving peak Cmax between 4 to 6 hours following dosing in the fed state.
When Compound 1 was given in the fed state, median time to reach maximum plasma concentration (Tmax) occurred between 4 and 6 hours.
As part of this single-dose escalation study, a food effect PK investigation was performed to examine Compound 1 exposures in both the fed and fasted states at the 150-mg dose level. A total of 6 subjects were administered 150 mg Compound 1 in each of these 2 dosing groups. Of these 6 subjects, 4 subjects received Compound 1 at the same dose in both fed and fasted states. […] Table 6 provides a summary of the PK parameters at the 150-mg dose level under both fed and fasted state conditions.
PK parameters AUC0-∞ and Cmax were analyzed separately for dose proportionality for Compound 1 from 50 to 800 mg when administered in the fed state. […]

morning rise in A4 (CRF1 receptor): attenuates
dose proportionality of Cmax [1]: more than dose proportional
SMILES: CCC(CC)c1cc(C)nc2c(-c3sc(N4CCOCC4)nc3Cl)c(C)nn12 [Compound 1, 3-(4-Chloro-2-(morpholin-4-yl)thiazol-5-yl)-7-(1-ethylpropyl)-2,5-dimethylpyrazolo(1,5-a)pyrimidine]
